Laboratory results as given in the supplement of paper PMC10307832.

Key:
Assay in all cases: relative viability (nuclei count vs DMSO), 5 days (fraction); higher = more cells survive
201T = system: 201T
How it was run: (§1)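 Relative viability is defined as nuclei in treated wells over nuclei in vehicle wells. Duplicate plates were run and medians reported. Lung cancer cell lines in 1536-well plates were dosed by pin tool one day after seeding, with one drug or with a fixed anchor-drug dose plus five library-drug doses (not always all listed) in √10 steps, and nuclei were counted after 5 days.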

BEN = system: BEN
How it was run: as §1

COR-L 105 = system: COR-L 105
How it was run: as §1

EKVX = system: EKVX
How it was run: as §1

EPLC-272H = system: EPLC-272H
How it was run: as §1

H3255 = system: H3255
How it was run: as §1

HCC-44 = system: HCC-44
How it was run: as §1

HCC-827 = system: HCC-827
How it was run: as §1

HOP-62 = system: HOP-62
How it was run: as §1

LCLC-97TM1 = system: LCLC-97TM1
How it was run: as §1

LOU-NH91 = system: LOU-NH91
How it was run: as §1

LU99A = system: LU99A
How it was run: as §1

NCI-H1395 = system: NCI-H1395
How it was run: as §1

NCI-H1437 = system: NCI-H1437
How it was run: as §1

NCI-H1666 = system: NCI-H1666
How it was run: as §1

NCI-H1975 = system: NCI-H1975
How it was run: as §1

NCI-H2085 = system: NCI-H2085
How it was run: as §1

NCI-H2087 = system: NCI-H2087
How it was run: as §1

NCI-H2126 = system: NCI-H2126
How it was run: as §1

NCI-H2342 = system: NCI-H2342
How it was run: as §1

NCI-H358 = system: NCI-H358
How it was run: as §1

NCI-H647 = system: NCI-H647
How it was run: as §1

PC-3 [JPC-3] = system: PC-3 [JPC-3]
How it was run: as §1

SW 1573 = system: SW 1573
How it was run: as §1

C[C@@H]1CN(CC(=O)Nc2ccc3c(c2)Cc2cccc(-c4cc(=O)cc(N5CCOCC5)o4)c2S3)C[C@H](C)O1 + COc1cccc2cc(-c3nc([C@H]4CC[C@H](C(=O)O)CC4)n4ncnc(N)c34)[nH]c12 [OSI-027] (partner 0.5 µM)
relative viability (201T; first compound 0.04 µM): 0.784 | relative viability (201T; first compound 0.1265 µM): 0.68 | relative viability (201T; first compound 0.4 µM): 0.683 | relative viability (201T; first compound 4 µM): 0.757 | relative viability (BEN; first compound 0.04 µM): 0.288 | relative viability (BEN; first compound 0.1265 µM): 0.28 | relative viability (BEN; first compound 0.4 µM): 0.305 | relative viability (BEN; first compound 4 µM): 0.296 | relative viability (COR-L 105; first compound 0.04 µM): 0.728 | relative viability (COR-L 105; first compound 0.1265 µM): 0.828 | relative viability (COR-L 105; first compound 0.4 µM): 0.823 | relative viability (COR-L 105; first compound 4 µM): 0.661 | relative viability (EKVX; first compound 0.04 µM): 0.713 | relative viability (EKVX; first compound 0.1265 µM): 0.676 | relative viability (EKVX; first compound 0.4 µM): 0.712 | relative viability (EKVX; first compound 4 µM): 0.618 | relative viability (EPLC-272H; first compound 0.04 µM): 0.279 | relative viability (EPLC-272H; first compound 0.1265 µM): 0.334 | relative viability (EPLC-272H; first compound 0.4 µM): 0.301 | relative viability (EPLC-272H; first compound 4 µM): 0.304 | relative viability (H3255; first compound 0.04 µM): 0.599 | relative viability (H3255; first compound 0.1265 µM): 0.624 | relative viability (H3255; first compound 0.4 µM): 0.48 | relative viability (H3255; first compound 4 µM): 0.491 | relative viability (HCC-44; first compound 0.04 µM): 0.328 | relative viability (HCC-44; first compound 0.1265 µM): 0.707 | relative viability (HCC-44; first compound 0.4 µM): 0.335 | relative viability (HCC-44; first compound 4 µM): 0.305 | relative viability (HCC-827; first compound 0.04 µM): 0.775 | relative viability (HCC-827; first compound 0.1265 µM): 0.738 | relative viability (HCC-827; first compound 0.4 µM): 0.509 | relative viability (HCC-827; first compound 4 µM): 0.746 | relative viability (HOP-62; first compound 0.04 µM): 0.828 | relative viability (HOP-62; first compound 0.1265 µM): 0.797 | relative viability (HOP-62; first compound 0.4 µM): 0.763 | relative viability (HOP-62; first compound 4 µM): 0.881 | relative viability (LCLC-97TM1; first compound 0.04 µM): 0.45 | relative viability (LCLC-97TM1; first compound 0.1265 µM): 0.601 | relative viability (LCLC-97TM1; first compound 0.4 µM): 0.408 | relative viability (LCLC-97TM1; first compound 4 µM): 0.509 | relative viability (LOU-NH91; first compound 0.04 µM): 0.746 | relative viability (LOU-NH91; first compound 0.1265 µM): 0.711 | relative viability (LOU-NH91; first compound 0.4 µM): 0.724 | relative viability (LOU-NH91; first compound 4 µM): 0.7 | relative viability (LU99A; first compound 0.04 µM): 0.282 | relative viability (LU99A; first compound 0.1265 µM): 0.34 | relative viability (LU99A; first compound 0.4 µM): 0.299 | relative viability (LU99A; first compound 4 µM): 0.374 | relative viability (NCI-H1395; first compound 0.04 µM): 0.782 | relative viability (NCI-H1395; first compound 0.1265 µM): 0.655 | relative viability (NCI-H1395; first compound 0.4 µM): 0.539 | relative viability (NCI-H1395; first compound 4 µM): 0.612 | relative viability (NCI-H1437; first compound 0.04 µM): 0.918 | relative viability (NCI-H1437; first compound 0.1265 µM): 0.881 | relative viability (NCI-H1437; first compound 0.4 µM): 0.864 | relative viability (NCI-H1437; first compound 4 µM): 0.747 | relative viability (NCI-H1666; first compound 0.04 µM): 0.932 | relative viability (NCI-H1666; first compound 0.1265 µM): 0.87 | relative viability (NCI-H1666; first compound 0.4 µM): 0.978 | relative viability (NCI-H1666; first compound 4 µM): 0.838 | relative viability (NCI-H1975; first compound 0.04 µM): 0.74 | relative viability (NCI-H1975; first compound 0.1265 µM): 0.602 | relative viability (NCI-H1975; first compound 0.4 µM): 0.608 | relative viability (NCI-H1975; first compound 4 µM): 0.448 | relative viability (NCI-H2085; first compound 0.04 µM): 0.97 | relative viability (NCI-H2085; first compound 0.1265 µM): 0.611 | relative viability (NCI-H2085; first compound 0.4 µM): 0.476 | relative viability (NCI-H2085; first compound 4 µM): 0.477 | relative viability (NCI-H2087; first compound 0.04 µM): 0.847 | relative viability (NCI-H2087; first compound 0.1265 µM): 0.521 | relative viability (NCI-H2087; first compound 0.4 µM): 0.463 | relative viability (NCI-H2087; first compound 4 µM): 0.457 | relative viability (NCI-H2126; first compound 0.04 µM): 0.708 | relative viability (NCI-H2126; first compound 0.1265 µM): 0.579 | relative viability (NCI-H2126; first compound 0.4 µM): 0.677 | relative viability (NCI-H2126; first compound 4 µM): 0.647 | relative viability (NCI-H2342; first compound 0.04 µM): 0.647 | relative viability (NCI-H2342; first compound 0.1265 µM): 0.506 | relative viability (NCI-H2342; first compound 0.4 µM): 0.52 | relative viability (NCI-H2342; first compound 4 µM): 0.58 | relative viability (NCI-H358; first compound 0.04 µM): 0.679 | relative viability (NCI-H358; first compound 0.1265 µM): 0.673 | relative viability (NCI-H358; first compound 0.4 µM): 0.852 | relative viability (NCI-H358; first compound 4 µM): 0.418 | relative viability (NCI-H647; first compound 0.04 µM): 0.519 | relative viability (NCI-H647; first compound 0.1265 µM): 0.669 | relative viability (NCI-H647; first compound 0.4 µM): 0.497 | relative viability (NCI-H647; first compound 4 µM): 0.558 | relative viability (PC-3 [JPC-3]; first compound 0.04 µM): 0.81 | relative viability (PC-3 [JPC-3]; first compound 0.1265 µM): 0.815 | relative viability (PC-3 [JPC-3]; first compound 0.4 µM): 0.66 | relative viability (PC-3 [JPC-3]; first compound 4 µM): 0.577 | relative viability (SW 1573; first compound 0.04 µM): 0.796 | relative viability (SW 1573; first compound 0.1265 µM): 0.72 | relative viability (SW 1573; first compound 0.4 µM): 0.465 | relative viability (SW 1573; first compound 4 µM): 0.604
